Experimental data as given in patent publication US12240844B2 (Voronoi, Inc., priority 2019, dated 2025).

What was measured:
Assay type in all cases: biochemical
LRRK2 (G2019S) = LRRK2 (G2019S) (Homo sapiens, UniProt Q5S007, G2019S); assay: LRRK2 G2019S enzyme inhibition, ADP-Glo kinase assay; parameters: purchased SignalChem L10-12GG
Summary of the method: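 Purified human LRRK2 G2019S (16 ng) with 25 μM ATP and 0.2 μg substrate, 2 h at 25° C in 40 mM Tris-HCl pH 7.4, 20 mM MgCl2, 0.5 mg/ml BSA, 50 μM DTT; compound at 12 final concentrations from 50 μM downward. ADP-Glo luminescence versus solvent control gave IC50 (nM).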

[1] = target: T1, human GST-DYRK1A (full length) (Homo sapiens, UniProt Q13627); assay: GST-DYRK1A enzyme inhibition, ADP-Glo kinase assay; settings: read-out: DYRK1 IC50
T1 construct: purified human GST-DYRK1A (full length, Thermo scientifics) enzyme; GST; purchased Thermo scientifics
Summary of the method: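 Full-length human GST-DYRK1A (10 ng) incubated with 10 uM ATP and specific substrate for 1 h at 25° C in 40 mM Tris-HCl pH 7.4, 20 mM MgCl2, 0.5 mg/mL BSA, 50 uM DTT. ADP formation read by ADP-Glo luminescence; IC50 (nM) versus solvent control, triplicate.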

LRRK2 = LRRK2 (Homo sapiens, UniProt Q5S007); assay: LRRK2 enzyme inhibition, ADP-Glo kinase assay; parameters: purchased Invitrogen PR8604B
Description: In order to evaluate the inhibitory activity of the compounds according to the present invention on LRRK2, LRRK2 (G2019S), DYRK1, CLK1 and TTK kinases, the following experiment was performed.
Example compounds were reacted with the purified human LRRK2 (Invitrogen #PR8604B) enzyme to evaluate the enzyme inhibitory ability as follows. The reaction buffer was used as the composition of 40 mM Tris-HCl pH7.4, 20 mM MgCl2, 0.5 mg/ml BSA and 50 μM DTT, and the reaction of all test materials was performed on the reaction buffer. The compound was diluted with 10 mM DMSO stock in 12 steps by a serial dilution method, and the enzyme activity was measured at the final compound concentrations of 50, 10, 2, 0.4, 0.08, 0.016, 0.0032, 0.00064, 0.000128, 0.0000256, 0.00000512 and 0.000001024 μM. In the test, the human LRRK2 (25 ng) enzyme was reacted with the purified ATP (10 μM) and an enzyme substrate ([…]) at 25° C. for 2 hours, and then the enzyme activity was identified using the in vitro ADP-Glo™ kinase assay (promega). The enzyme activity reaction liquid, an ADP-Glo reaction liquid and an enzyme potency detection solution were reacted in a ratio of 2:2:1, and the degree of inhibition of enzyme activity was measured by Luminescence. The degree of inhibition of enzyme activity according to the treatment concentrations of the respective compounds was calculated based on the fluorescence of the enzyme activity of a solvent control group that was not treated with the compound, where the concentration of each compound to inhibit enzyme activity inhibition by 50% was determined as an IC50 (nM) value and obtained using Prism (Version 5.01, GraphPad) software.
In the table below, the following designations were used for the evaluation of enzyme inhibitory ability.

human GST-CLK1 (129-end) = target: T2, human GST-CLK1 (129-end) (Homo sapiens, UniProt P49759); assay: GST-CLK1 enzyme inhibition, ADP-Glo kinase assay; settings: ATP 10 uM
T2 construct: purified human GST-CLK1 (129-end, Signalchem) enzyme; GST; purchased Signalchem
Summary of the method: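 GST-CLK1 (129-end, 3 ng) reacted with 10 uM ATP and substrate in 40 mM Tris-HCl pH 7.4, 20 mM MgCl2, 0.5 mg/mL BSA, 50 uM DTT, 1 h at 25° C. ADP-Glo luminescence normalised to solvent control; IC50 from triplicate data.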

LRRK2, sequence (Q5S007 970-2527 limits assumed): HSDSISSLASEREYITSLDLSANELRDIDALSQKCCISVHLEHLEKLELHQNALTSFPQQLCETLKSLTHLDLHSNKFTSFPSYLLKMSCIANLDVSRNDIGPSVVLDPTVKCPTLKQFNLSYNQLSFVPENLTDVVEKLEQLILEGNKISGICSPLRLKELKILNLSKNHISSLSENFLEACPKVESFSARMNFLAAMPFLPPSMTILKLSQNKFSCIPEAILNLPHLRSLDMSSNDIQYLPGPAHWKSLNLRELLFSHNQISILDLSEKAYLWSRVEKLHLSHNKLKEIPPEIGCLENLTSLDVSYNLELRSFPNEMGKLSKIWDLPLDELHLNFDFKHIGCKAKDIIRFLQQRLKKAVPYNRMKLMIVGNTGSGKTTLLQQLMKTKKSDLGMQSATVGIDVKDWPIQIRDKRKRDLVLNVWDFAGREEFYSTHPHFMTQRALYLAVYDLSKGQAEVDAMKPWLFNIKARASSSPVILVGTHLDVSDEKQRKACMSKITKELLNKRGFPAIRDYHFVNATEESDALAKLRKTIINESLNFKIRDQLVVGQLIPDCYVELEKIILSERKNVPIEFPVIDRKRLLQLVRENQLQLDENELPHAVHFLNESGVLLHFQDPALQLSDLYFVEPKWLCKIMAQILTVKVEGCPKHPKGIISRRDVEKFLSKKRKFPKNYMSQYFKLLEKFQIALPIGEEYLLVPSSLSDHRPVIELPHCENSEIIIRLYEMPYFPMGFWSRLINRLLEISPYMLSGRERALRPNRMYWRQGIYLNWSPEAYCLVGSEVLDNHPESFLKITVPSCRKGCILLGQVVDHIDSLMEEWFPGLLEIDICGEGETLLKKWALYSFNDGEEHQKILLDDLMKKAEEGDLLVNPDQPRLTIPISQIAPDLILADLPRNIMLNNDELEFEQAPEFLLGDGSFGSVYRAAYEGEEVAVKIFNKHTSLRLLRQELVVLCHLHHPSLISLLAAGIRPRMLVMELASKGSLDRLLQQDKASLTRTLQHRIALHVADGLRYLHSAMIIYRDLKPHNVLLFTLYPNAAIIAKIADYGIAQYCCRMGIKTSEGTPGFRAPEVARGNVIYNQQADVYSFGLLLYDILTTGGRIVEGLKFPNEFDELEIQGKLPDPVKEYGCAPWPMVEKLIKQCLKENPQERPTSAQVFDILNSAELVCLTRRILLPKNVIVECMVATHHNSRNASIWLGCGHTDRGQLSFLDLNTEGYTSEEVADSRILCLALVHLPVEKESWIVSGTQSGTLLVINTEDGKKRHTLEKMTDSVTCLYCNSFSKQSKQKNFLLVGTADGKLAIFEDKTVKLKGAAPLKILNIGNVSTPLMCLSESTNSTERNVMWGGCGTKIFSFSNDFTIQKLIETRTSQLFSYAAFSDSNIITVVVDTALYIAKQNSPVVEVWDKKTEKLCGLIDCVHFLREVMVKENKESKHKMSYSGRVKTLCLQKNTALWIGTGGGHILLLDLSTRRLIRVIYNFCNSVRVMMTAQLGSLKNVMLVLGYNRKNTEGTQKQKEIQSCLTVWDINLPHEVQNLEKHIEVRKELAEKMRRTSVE
LRRK2 (G2019S), sequence (Q5S007 970-2527 G2019S limits assumed): as the sequence (Q5S007 970-2527 limits assumed) above, with G1050S counted along it
T2 sequence (P49759 129-484 limits assumed): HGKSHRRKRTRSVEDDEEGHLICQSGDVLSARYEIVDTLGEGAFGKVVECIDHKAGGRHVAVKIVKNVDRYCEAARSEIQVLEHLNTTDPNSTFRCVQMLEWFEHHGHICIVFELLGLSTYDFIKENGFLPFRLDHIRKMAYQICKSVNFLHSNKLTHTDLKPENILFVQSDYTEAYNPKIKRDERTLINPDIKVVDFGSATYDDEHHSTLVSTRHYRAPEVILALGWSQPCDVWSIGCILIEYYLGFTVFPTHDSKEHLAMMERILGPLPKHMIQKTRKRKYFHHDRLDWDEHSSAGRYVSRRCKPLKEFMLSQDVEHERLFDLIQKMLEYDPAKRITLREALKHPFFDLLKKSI

Row | Structure (SMILES) | IC50 (LRRK2 (G2019S)) [nM] | IC50 [1] [nM] | IC50 (LRRK2) [nM] | IC50 (human GST-CLK1 (129-end)) [nM]
1 | CNc1cc(Nc2ccc(C(=O)N3CCOCC3)c3c2OCC3)nc2[nH]cc(C(F)(F)F)c12 [Example 52, (7-((4-(methylamino)-3-(trifluoromethyl)-1H-pyrrolo[2,3-b]pyridin-6-yl)amino)-2,3-dihydrobenzofuran-4-yl)(morpholino) methanone] | < 100 | < 100 | < 100 | < 100
2 | O=C(c1ccc(Nc2cc(NC3CC3)c3c(C(F)(F)F)c[nH]c3n2)c2c1CCO2)N1CCOCC1 [Example 53, (7-((4-(cyclopropylamino)-3-(trifluoromethyl)-1H-pyrrolo[2,3-b]pyridin-6-yl)amino)-2,3-dihydrobenzofuran-4-yl)(morpholino) methanone] | < 100 | < 100 | < 100 | < 100
3 | COCCNc1cc(Nc2ccc(C(=O)N3CCOCC3)c3c2OCCO3)nc2[nH]cc(Cl)c12 [Example 62, (8-((3-chloro-4-((2-methoxyethyl)amino)-1H-pyrrolo[2,3-b]pyridin-6-yl)amino)-2,3-dihydrobenzo[b] [1,4]dioxin-5-yl)(morpholino) methanone] | < 100 | 301 to 1000 | < 100 | 301 to 1000
4 | CNc1cc(Nc2ccc(S(=O)(=O)N3CCOCC3)cc2OC)nc2[nH]cc(Cl)c12 [Example 64, 3-chloro-N^6-(2-methoxy-4-(morpholinosulfonyl)phenyl)-N^4-methyl-1H-pyrrolo[2,3-b]pyridine-4,6-diamine] | 301 to 1000 | 301 to 1000 | 301 to 1000 | 301 to 1000
5 | CCNc1cc(Nc2ccc(S(=O)(=O)N3CCOCC3)cc2OC)nc2[nH]cc(Cl)c12 [Example 65, 3-chloro-N^4-ethyl-N^6-(2-methoxy-4-(morpholinosulfonyl)phenyl)-1H-pyrrolo[2,3-b]pyridine-4,6-diamine] | 301 to 1000 | 301 to 1000 | 101 to 300 | 301 to 1000
6 | COc1cc(S(=O)(=O)N2CCOCC2)ccc1Nc1cc(NC2CCC2)c2c(Cl)c[nH]c2n1 [Example 69, 3-chloro-N^4-cyclobutyl-N^6-(2-methoxy-4-(morpholinosulfonyl)phenyl)-1H-pyrrolo[2,3-b]pyridine-4,6-diamine] | 301 to 1000 | 301 to 1000 | 301 to 1000 | 301 to 1000
7 | COc1cc(S(=O)(=O)N2CCOCC2)ccc1Nc1cc(NC2CCCCC2)c2c(Cl)c[nH]c2n1 [Example 70, 3-chloro-N^4-cyclohexyl-N^6-(2-methoxy-4-(morpholinosulfonyl)phenyl)-1H-pyrrolo[2,3-b]pyridine-4,6-diamine] | 301 to 1000 | 301 to 1000 | 301 to 1000 | 301 to 1000
8 | COc1cc(S(C)(=O)=O)ccc1Nc1cc(NC2CCC2)c2c(Cl)c[nH]c2n1 [Example 85, 3-chloro-N^4-cyclobutyl-N^6-(2-methoxy-4-(methylsulfonyl)phenyl)-1H-pyrrolo[2,3-b]pyridine-4,6-diamine] | 301 to 1000 | 101 to 300 | 301 to 1000 | 301 to 1000
9 | CCNc1cc(Nc2ccc(C(=O)N3CCOCC3)c3c2OCC3)nc2[nH]cc(C(F)(F)F)c12 [Example 89, (7-((4-(ethylamino)-3-(trifluoromethyl)-1H-pyrrolo[2,3-b]pyridin-6-yl)amino)-2,3-dihydrobenzofuran-4-yl)(morpholino) methanone] | < 100 | < 100 | < 100 | < 100
10 | CNc1cc(Nc2ccc(C(=O)N3CCOCC3)c3c2OCCO3)nc2[nH]cc(C#N)c12 [Example 106, 4-(methylamino)-6-((8-(morpholine-4-carbonyl)-2,3-dihydrobenzo[b] [1,4]dioxin-5-yl)amino)-1H-pyrrolo[2,3-b]pyridine-3-carbonitrile] | < 100 | 301 to 1000 | < 100 | 301 to 1000
11 | CCNc1cc(Nc2ccc(C(=O)N3CCOCC3)c3c2OCCO3)nc2[nH]cc(C#N)c12 [Example 107, 4-(ethylamino)-6-((8-(morpholine-4-carbonyl)-2,3-dihydrobenzo[b] [1,4]dioxin-5-yl)amino)-1H-pyrrolo[2,3-b]pyridine-3-carbonitrile] | < 100 | 301 to 1000 | < 100 | 301 to 1000
12 | CCCNc1cc(Nc2ccc(C(=O)N3CCOCC3)c3c2OCCO3)nc2[nH]cc(C#N)c12 [Example 108, 6-((8-(morpholine-4-carbonyl)-2,3-dihydrobenzo[b] [1,4]dioxin-5-yl)amino)-4-(propylamino)-1H-pyrrolo[2,3-b]pyridine-3-carbonitrile] | < 100 | 301 to 1000 | < 100 | 301 to 1000
13 | COc1cc(P2(=O)CCN(C3CC3)CC2)ccc1Nc1cc(NC2CC2)c2c(C(F)(F)F)c[nH]c2n1 [Example 211, 1-cyclopropyl-4-(4-((4-(cyclopropylamino)-3-(trifluoromethyl)-1H-pyrrolo[2,3-b]pyridin-6-yl)amino)-3-methoxyphenyl)-1,4-azaphosphinane 4-oxide] | – | 301 to 1000 | < 100 | 301 to 1000
14 | COc1cc(P2(=O)CCN(C3CC3)CC2)ccc1Nc1cc(C2CC2)c2c(C(F)(F)F)c[nH]c2n1 [Example 218, 1-cyclopropyl-4-(4-((4-cyclopropyl-3-(trifluoromethyl)-1H-pyrrolo[2,3-b]pyridin-6-yl)amino)-3-methoxyphenyl)-1,4-azaphosphinane 4-oxide] | – | 301 to 1000 | < 100 | 301 to 1000
15 | CCOc1cc(Nc2ccc(C(=O)N3CCOCC3)c3c2OCCO3)nc2[nH]cc(C(F)(F)F)c12 [Example 231, (8-((4-ethoxy-3-(trifluoromethyl)-1H-pyrrolo[2,3-b]pyridin-6-yl)amino)-2,3-dihydrobenzo[b] [1,4]dioxin-5-yl)(morpholino) methanone] | – | 301 to 1000 | < 100 | 301 to 1000

Other lines, results leading:

Row | IC50 (LRRK2 (G2019S)) [nM] | IC50 [1] [nM] | IC50 (LRRK2) [nM] | IC50 (human GST-CLK1 (129-end)) [nM] | Structure (SMILES)
16 | < 100 | 301 to 1000 | 101 to 300 | 301 to 1000 | CNc1cc(Nc2ccc(S(C)(=O)=O)cc2OC)nc2[nH]ccc12 [Example 25, N^6-(2-methoxy-4-(methylsulfonyl)phenyl)-N^4-methyl-1H-pyrrolo[2,3-b]pyridine-4,6-diamine]
17 | < 100 | 301 to 1000 | < 100 | 301 to 1000 | CCNc1cc(Nc2ccc(S(C)(=O)=O)cc2OC)nc2[nH]ccc12 [Example 26, N^4-ethyl-N^6-(2-methoxy-4-(methylsulfonyl)phenyl)-1H-pyrrolo[2,3-b]pyridine-4,6-diamine]
18 | < 100 | 301 to 1000 | < 100 | 301 to 1000 | CCCNc1cc(Nc2ccc(S(C)(=O)=O)cc2OC)nc2[nH]ccc12 [Example 27, N^6-(2-methoxy-4-(methylsulfonyl)phenyl)-N^4-propyl-1H-pyrrolo[2,3-b]pyridine-4,6-diamine]
19 | 301 to 1000 | 301 to 1000 | 101 to 300 | 301 to 1000 | COc1cc(S(C)(=O)=O)ccc1Nc1cc(NC(C)C)c2cc[nH]c2n1 [Example 28, N^4-isopropyl-N^6-(2-methoxy-4-(methylsulfonyl)phenyl)-1H-pyrrolo[2,3-b]pyridine-4,6-diamine]
20 | 101 to 300 | 301 to 1000 | < 100 | 301 to 1000 | COc1cc(S(C)(=O)=O)ccc1Nc1cc(NCC(C)C)c2cc[nH]c2n1 [Example 29, N^4-isobutyl-N^6-(2-methoxy-4-(methylsulfonyl)phenyl)-1H-pyrrolo[2,3-b]pyridine-4,6-diamine]
21 | 301 to 1000 | 301 to 1000 | 301 to 1000 | 301 to 1000 | CCNc1cc(Nc2ccc(P(C)(=O)O)cc2OC)nc2[nH]ccc12 [Example 32, (4-((4-(ethylamino)-1H-pyrrolo[2,3-b]pyridin-6-yl)amino)-3-methoxyphenyl) (methyl)phosphinic acid]
